Experimental data as given in patent EP4700021A1, “NOVEL COMPOUND AND PHARMACEUTICAL COMPOSITION COMPRISING SAME AS ACTIVE INGREDIENT” (Sapiensbio Inc., priority 2023, dated 2025).

Test system: α-SMA
Experiment: in vitro α-SMA expression inhibition (immunostaining, confocal microscopy) in TGF-β1-treated MRC-5 cells
Type: cell-based, human
Details: Homo sapiens, TGF-β1 (5 ng/mL), 72 hours, standardized using GAPDH
Excerpt: When scars are generated in tissue, fibroblasts undergo fibroblast-to-myofibroblast transition (FMT), and the resulting myofibroblasts produce the extracellular matrix, leading to tissue fibrosis. α-SMA is a representative biomarker of myofibroblasts, and its expression greatly increases as FMT progresses. Accordingly, through the evaluation of α-SMA expression inhibitory activity, the efficacy of the compounds in inhibiting fibrosis may be evaluated. Therefore, the inhibitory activity of the compounds of the present invention on α-SMA expression was evaluated in cells. To more accurately evaluate the inhibition of α-SMA expression, IC50 values were determined by treating human lung-derived fibroblasts (MRC-5 cells) with the compounds of the present invention in a concentration-dependent manner.
Specifically, 2 hours after the MRC-5 cells were treated with DMSO or compounds dissolved in serum containing 0.5% fetal bovine serum (FBS) in a concentration-dependent manner, fibrosis was induced by treatment with TGF-β1 (5 ng/mL). After 72 hours, the cells were immobilized with a 2% paraformaldehyde solution for 10 minutes, and to impart cell membrane permeability, a 0.1% Triton X-100 solution was treated for 10 minutes, and a 1% bovine serum albumin (BSA) solution was treated to prevent non-specific binding. For immunostaining, anti-GAPDH (BIO-RAD) was first treated as a primary antibody, and Alexa Fluor™ Plus 555 for GAPDH labeling was used as a secondary antibody. For α-SMA staining, an FITC fluorescence-tagged α-SMA primary antibody was used, and thus the increase and decrease in α-SMA caused by the compounds were evaluated. The immunohistochemical experimental results were confirmed with a STELLARIS 5 confocal microscope (Leica), and FITC-stained α-SMA was standardized using GAPDH labeled with Alexa FluorTM Plus 555 for quantification. The IC50 of the compounds according to the present invention was calculated through statistical analysis (linear mixed effects model). […]

Which IC50 does the source give for `O=C(NCC1CC1)N1CCN(c2ccc(F)cc2)c2cc(F)ccc21` [Compound 3, N-(cyclopropylmethyl)-6-fluoro-4-(4-fluorophenyl)-3,4-dihydroquinoxaline-1(2H)-carboxamide] here?
The IC50 was 1 to 10 µM.

How did the IC50 turn out when `O=C(NCC1CC1)N1CCN(c2ccc(F)cc2)c2ccccc21` [Compound 6, N-(cyclopropylmethyl)-4-(4-fluorophenyl)-3,4-dihydroquinoxaline-1(2H)-carboxamide] was run?
The IC50 was 1 to 10 µM.

Which IC50 does the source give for `O=C(N1CCCC1)N1CCN(c2ccccc2Cl)c2ccccc21` [Compound 8, (4-(2-chlorophenyl)-3,4-dihydroquinoxaline-1(2H)-yl)(pyrrolidin-1-yl)methanone] here?
Its IC50 is 10 to 30 µM.

For `O=C(N1CCOCC1)N1CCN(c2ccccc2Cl)c2ccccc21` [Compound 9, (4-(2-chlorophenyl)-3,4-dihydroquinoxaline-1(2H)-yl)(morpholino)methanone], which IC50 is on record?
The IC50 was at most 30 µM.

For `O=C(N1CCNCC1)N1CCN(c2ccccc2Cl)c2ccccc21` [Compound 10, (4-(2-chlorophenyl)-3,4-dihydroquinoxaline-1(2H)-yl)(piperazin-1-yl)methanone], which IC50 is on record?
The IC50 was under 1 µM.

`CC(C)N1CC[C@H](NC(=O)N2CCN(c3ccccn3)c3ccccc32)C1` [Compound 11, (S)-N-(1-isopropylpyrrolidin-3-yl)-4-(pyridin-2-yl)-3,4-dihydroquinoxaline-1(2H)-carboxamide] was tested. Which IC50 did it give?
The IC50 was 1 to 10 µM.

`N[C@H]1CCN(C(=O)N2CCN(c3ccccn3)c3ccccc32)C1` [Compound 12, (S)-(3-aminopyrrolidin-1-yl)(4-(pyridin-2-yl)-3,4-dihydroquinoxaline-1(2H)-yl)methanone] was tested. Which IC50 did it give?
Its IC50 is at most 30 µM.

`O=C(NC1CCNCC1)N1CCN(c2ccccn2)c2ccccc21` [Compound 13, N-(piperidin-4-yl)-4-(pyridin-2-yl)-3,4-dihydroquinoxaline-1(2H)-carboxamide] was tested. Which IC50 did it give?
The IC50 was 1 to 10 µM.

For `O=C(NC[C@@H]1CCNC1)N1CCN(c2ccccn2)c2ccccc21` [Compound 14, (R)-4-(pyridin-2-yl)-N-(pyrrolidin-3-ylmethyl)-3,4-dihydroquinoxaline-1(2H)-carboxamide], which IC50 is on record?
Its IC50 is 1 to 10 µM.

`O=C(NC[C@H]1CCCN1)N1CCN(c2ccccn2)c2ccccc21` [Compound 15, (R)-4-(pyridin-2-yl)-N-(pyrrolidin-2-ylmethyl)-3,4-dihydroquinoxaline-1(2H)-carboxamide] was tested. Which IC50 did it give?
Its IC50 is under 1 µM.

With `O=C(N[C@@H]1CCOC1)N1CCN(c2cccnc2)c2ccccc21` [Compound 16, (R)-4-(pyridin-3-yl)-N-(tetrahydrofuran-3-yl)-3,4-dihydroquinoxaline-1 (2H)-carboxamide] as the molecule, how does the IC50 read?
Its IC50 is 1 to 10 µM.

`CN1CCC(NC(=O)N2CCN(c3ccc(F)cn3)c3ccccc32)CC1` [Compound 18, 4-(5-fluoropyridin-2-yl)-N-(1-methylpiperidin-4-yl)-3,4-dihydroquinoxaline-1(2H)-carboxamide] was tested. Which IC50 did it give?
The IC50 was 1 to 10 µM.

With `O=C(N[C@H]1CCNC1)N1CCN(c2cnccn2)c2ccccc21` [Compound 19, (S)-4-(pyrazin-2-yl)-N-(pyrrolidin-3-yl)-3,4-dihydroquinoxaline-1(2H)-carboxamide] as the molecule, how does the IC50 read?
The IC50 was 1 to 10 µM.

How did the IC50 turn out when `CN1CC[C@H](NC(=O)N2CCN(c3cnccn3)c3ccccc32)C1` [Compound 20, (S)-N-(1-methylpyrrolidin-3-yl)-4-(pyrazin-2-yl)-3,4-dihydroquinoxaline-1(2H)-carboxamide] was run?
The IC50 was under 1 µM.

For `CC(C)CN1CC[C@H](NC(=O)N2CCN(c3cnccn3)c3ccccc32)C1` [Compound 22, (S)-N-(1-isobutylpyrrolidin-3-yl)-4-(pyrazin-2-yl)-3,4-dihydroquinoxaline-1(2H)-carboxamide], which IC50 is on record?
The IC50 was at most 30 µM.

With `O=C(NC1CCNCC1)N1CCN(c2cnccn2)c2ccccc21` [Compound 23, N-(piperidin-4-yl)-4-(pyrazin-2-yl)-3,4-dihydroquinoxaline-1(2H)-carboxamide] as the molecule, how does the IC50 read?
The IC50 was 1 to 10 µM.

`CC(C)CN1CCC(NC(=O)N2CCN(c3cnccn3)c3ccccc32)CC1` [Compound 27, N-(1-isobutylpiperidin-4-yl)-4-(pyrazin-2-yl)-3,4-dihydroquinoxaline-1(2H)-carboxamide] was tested. Which IC50 did it give?
Its IC50 is 10 to 30 µM.

For `CN1CCC(NC(=S)N2CCN(c3cnccn3)c3ccccc32)CC1` [Compound 29, N-(1-methylpiperidin-4-yl)-4-(pyrazin-2-yl)-3,4-dihydroquinoxaline-1 (2H)-carbothioamide], which IC50 is on record?
The IC50 was 1 to 10 µM.

With `CN1CC[C@@H](COC(=O)N2CCN(c3cnccn3)c3ccccc32)C1` [Compound 31, (R)-(1-methylpyrrolidin-3-yl)methyl-4-(pyrazin-2-yl)-3,4-dihydroquinoxaline-1(2H)-carboxylate] as the molecule, how does the IC50 read?
Its IC50 is 1 to 10 µM.

How did the IC50 turn out when `O=C(N[C@@H]1CCNC1)N1CCN(Cc2ccccc2)c2ccccc21` [Compound 33, (R)-4-benzyl-N-(pyrrolidin-3-yl)-3,4-dihydroquinoxaline-1(2H)-carboxamide] was run?
The IC50 was 1 to 10 µM.

For `CN1CC[C@@H](NC(=O)N2CCN(Cc3ccccc3)c3ccccc32)C1` [Compound 34, (R)-4-benzyl-N-(1-methylpyrrolidin-3-yl)-3,4-dihydroquinoxaline-1(2H)-carboxamide], which IC50 is on record?
Its IC50 is 1 to 10 µM.

With `CN[C@H]1CCN(C(=O)N2CCN(Cc3ccccc3)c3ccccc32)C1` [Compound 36, (S)-(4-benzyl-3,4-dihydroquinoxaline-1(2H)-yl)(3-(methylamino)pyrrolidin-1-yl)methanone] as the molecule, how does the IC50 read?
Its IC50 is 10 to 30 µM.

With `N[C@H]1CCN(C(=O)N2CCN(Cc3ccccc3F)c3ccccc32)C1` [Compound 37, (S)-(3-aminopyrrolidin-1-yl)(4-(2-fluorobenzyl)-3,4-dihydroquinoxaline-1(2H)-yl)methanone] as the molecule, how does the IC50 read?
The IC50 was 1 to 10 µM.

For `CN[C@H]1CCN(C(=O)N2CCN(Cc3ccccc3F)c3ccccc32)C1` [Compound 38, (S)-(4-(2-fluorobenzyl)-3,4-dihydroquinoxaline-1(2H)-yl)(3-(methylamino)pyrrolidin-1-yl)methanone], which IC50 is on record?
The IC50 was 1 to 10 µM.

Which IC50 does the source give for `N[C@H]1CCN(C(=O)N2CCN(Cc3cccc(F)c3)c3ccccc32)C1` [Compound 39, (S)-(3-aminopyrrolidin-1-yl)(4-(3-fluorobenzyl)-3,4-dihydroquinoxaline-1(2H)-yl)methanone] here?
Its IC50 is under 1 µM.

With `CC(C)N[C@H]1CCN(C(=O)N2CCN(Cc3ccc(F)cc3)c3ccccc32)C1` [Compound 42, (S)-(4-(4-fluorobenzyl)-3,4-dihydroquinoxaline-1(2H)-yl)(3-(isopropylamino)pyrrolidin-1-yl)methanone] as the molecule, how does the IC50 read?
The IC50 was 1 to 10 µM.

For `CN(C)[C@H]1CCN(C(=O)N2CCN(Cc3ccccn3)c3ccccc32)C1` [Compound 46, (S)-(3-(dimethylamino)pyrrolidin-1-yl)(4-(pyridin-2-ylmethyl)-3,4-dihydroquinoxaline-1(2H)-yl)methanone], which IC50 is on record?
The IC50 was at most 30 µM.

For `CC(C)N[C@H]1CCN(C(=O)N2CCN(Cc3ccccn3)c3ccccc32)C1` [Compound 47, (S)-(3-(isopropylamino)pyrrolidin-1-yl)(4-(pyridin-2-ylmethyl)-3,4-dihydroquinoxaline-1(2H)-yl)methanone], which IC50 is on record?
The IC50 was at most 30 µM.

How did the IC50 turn out when `O=C(NC[C@H]1CCCN1)N1CCN(Cc2ccccn2)c2ccccc21` [Compound 52, (R)-4-(pyridin-2-ylmethyl)-N-(pyrrolidin-2-ylmethyl)-3,4-dihydroquinoxaline-1(2H)-carboxamide] was run?
The IC50 was 1 to 10 µM.

How did the IC50 turn out when `O=C(NC1CCNCC1)N1CCN(Cc2ccccn2)c2ccccc21` [Compound 53, N-(piperidin-4-yl)-4-(pyridin-2-ylmethyl)-3,4-dihydroquinoxaline-1(2H)-carboxamide] was run?
Its IC50 is 1 to 10 µM.
